Experimental data published in EP4603105A1, “PHARMACEUTICAL COMPOSITION CONTAINING CYCLIC COMPOUND HAVING SELECTIVE KRAS INHIBITORY EFFECT AGAINST HRAS AND NRAS” (CHUGAI SEIYAKU KABUSHIKI KAISHA, priority 2022, dated 2024).

How the values were obtained:
[1] = tested on: human lung cancer strain NCI-H441; test: NCI-H441 cell proliferation inhibitory activity (CellTiter-Glo, 4 days); format: cell-based; conditions: NCI-H441 cells, 4 days, read-out: NCl-H441 IC50
Procedure, shortened: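 Signal came from […] measured per well once the reagent was added. Beforehand, cells were cultured at 37°C and 5% carbon dioxide on a compound series serially diluted in dimethyl sulfoxide.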

[2] = target: GDP-bound KRAS wild-type protein (Homo sapiens, UniProt P01116); test: Binding to KRAS by surface plasmon resonance (SPR), dissociation constant KD; conditions: Single Cycle Kinetics
Sequence of GDP-bound KRAS wild-type protein (P01116 1-188 isoform P01116-2): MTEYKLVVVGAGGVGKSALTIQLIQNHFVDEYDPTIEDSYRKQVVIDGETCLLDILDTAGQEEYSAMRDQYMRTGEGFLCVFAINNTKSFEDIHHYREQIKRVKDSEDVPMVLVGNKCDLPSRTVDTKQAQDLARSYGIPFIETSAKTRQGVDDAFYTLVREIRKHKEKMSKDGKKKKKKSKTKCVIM
Procedure, shortened: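 Captured GDP-RAS (~100–300 RU) was exposed to increasing compound concentrations, 75 s per step, in running buffer with 10 µM GDP, 10 mM MgCl2 and 4% DMSO at pH 7.4.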

[3] = target: GDP-bound NRAS wild-type protein (Homo sapiens, UniProt P01111); test: Binding to NRAS by surface plasmon resonance (SPR), KD and KD ratio to KRAS; conditions: ratio of KD for GDP-bound NRAS wild-type protein to KD for KRAS
Sequence of GDP-bound NRAS wild-type protein (P01111 whole entry): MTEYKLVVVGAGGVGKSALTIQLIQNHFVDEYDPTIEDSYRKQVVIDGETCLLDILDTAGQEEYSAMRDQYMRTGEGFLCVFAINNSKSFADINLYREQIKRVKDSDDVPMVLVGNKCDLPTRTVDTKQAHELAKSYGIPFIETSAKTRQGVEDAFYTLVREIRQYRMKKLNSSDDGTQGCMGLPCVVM
Procedure, shortened: (§1)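 Each cycle, GDP-bound biotin-Avi RAS was captured (~100–300 RU), compound concentrations were injected low to high for 75 s each at 100 µL/min, then the chip was regenerated. Buffer: HBS pH 7.4, 10 mM MgCl2, 10 µM GDP, 1 mM DTT, 4% DMSO; 30°C. KD from a 1:1 binding model.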

HRAS wild-type protein = HRAS wild-type protein (Homo sapiens, UniProt P01112); test: Binding to HRAS by surface plasmon resonance (SPR), KD and KD ratio to KRAS; conditions: ratio of KD for HRAS wild-type protein to KD for KRAS
Sequence of HRAS wild-type protein (P01112 whole entry): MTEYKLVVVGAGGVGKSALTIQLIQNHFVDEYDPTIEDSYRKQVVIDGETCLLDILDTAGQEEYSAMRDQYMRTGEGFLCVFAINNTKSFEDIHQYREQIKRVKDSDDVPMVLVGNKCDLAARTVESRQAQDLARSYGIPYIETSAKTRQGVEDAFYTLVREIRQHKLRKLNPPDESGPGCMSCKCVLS
Procedure, shortened: as §1

SMILES	IC50 [1]	Kd [2]	NRAS /KRAS [3]	HRAS /KRAS (HRAS wild-type protein)
CCCOC[C@H]1C(=O)N[C@@H](C2CCCC2)C(=O)N(CCC)CC(=O)N(C)[C@H]2C/C=C\CCN(C2=O)[C@@H](Cc2ccc(C(F)F)cc2)C(=O)N(C)CC(=O)N[C@@H](CCc2cc(F)c(C(F)(F)F)c(F)c2)C(=O)N2C[C@H](OCC)C[C@H]2C(=O)N(C)C2(CCC2)C(=O)N(C)[C@@H](C(CC)CC)C(=O)N(C)[C@H](C(=O)N(C)C)CC(=O)N1C [PP3507]	29.8 nM	0.9 nM	A (a compound having 10 or more and less than 20 is denoted as A)	A (a compound having 10 or more and less than 20 is denoted as A)
CCC(CC)[C@H]1C(=O)N(C)[C@H](C(=O)N(C)C)CC(=O)N(C)[C@@H](CC2CC2)C(=O)N[C@@H]([C@H](C)CC)C(=O)NCC(=O)N(C)[C@H]2C/C=C\CCN(C2=O)[C@@H](Cc2ccc(C(F)F)cc2)C(=O)N(C)CC(=O)N[C@@H](CCc2ccc(Cl)c(C(F)(F)F)c2)C(=O)N2C[C@H](OC(C)C)C[C@H]2C(=O)N(C)C2(CC(C)(C)C2)C(=O)N1C [PP3508]	57.2 nM	5.4 nM	A (a compound having 10 or more and less than 20 is denoted as A)	A (a compound having 10 or more and less than 20 is denoted as A)
CCO[C@@H]1C[C@H]2C(=O)NC3(CCCC3)C(=O)N(C)[C@@H](C3CCC3)C(=O)N(C)[C@H](C(=O)N(C)C)CC(=O)N(C)[C@@H](CC(C)C)C(=O)N[C@@H]([C@@H](C)CC)C(=O)N(C)CC(=O)N(C)[C@H]3C/C(F)=C\CCN(C3=O)[C@@H](Cc3ccc(C(F)(F)F)cc3)C(=O)N(C)CC(=O)N[C@@H](CCc3cc(F)c(C(F)(F)F)c(F)c3)C(=O)N2C1 [PP3516]	55.4 nM	1.4 nM	B (a compound having 3 or more and less than 10 is denoted as B)	B (a compound having 3 or more and less than 10 is denoted as B)
CCO[C@@H]1C[C@H]2C(=O)NC3(CCCC3)C(=O)N(C)[C@@H](C3CCC3)C(=O)N(C)[C@H](C(=O)N(C)C)CC(=O)N(C)[C@@H](CC(C)C)C(=O)N[C@@H]([C@@H](C)CC)C(=O)N(C)CC(=O)N(C)[C@H]3C/C(F)=C\CCN(C3=O)[C@@H](Cc3ccc(C)cc3)C(=O)N(C)CC(=O)N[C@@H](CCc3cc(F)c(C(F)(F)F)c(F)c3)C(=O)N2C1 [PP3517]	55.6 nM	1.8 nM	B (a compound having 3 or more and less than 10 is denoted as B)	B (a compound having 3 or more and less than 10 is denoted as B)
CCC[C@H]1C(=O)N[C@@H]([C@@H](C)CC)C(=O)N(C2CC2)CC(=O)N(C)[C@H]2C/C(F)=C\CCN(C2=O)[C@@H](Cc2ccc(C)cc2)C(=O)N(C)CC(=O)N[C@@H](CCc2cc(F)c(C(F)(F)F)c(F)c2)C(=O)N2C[C@H](OCC)C[C@H]2C(=O)NC2(CCC2)C(=O)N(C)[C@@H](C2CCCC2)C(=O)N(C)[C@H](C(=O)N(C)C)CC(=O)N1C [PP3519]	22.3 nM	0.87 nM	B (a compound having 3 or more and less than 10 is denoted as B)	B (a compound having 3 or more and less than 10 is denoted as B)
CCC[C@H]1C(=O)N[C@@H]([C@@H](C)CC)C(=O)N2CCC[C@H]2C(=O)N(C)[C@H]2C/C(F)=C\CCN(C2=O)[C@@H](Cc2ccc(C)cc2)C(=O)N(C)CC(=O)N[C@@H](CCc2cc(F)c(C(F)(F)F)c(F)c2)C(=O)N2C[C@H](OCC)C[C@H]2C(=O)NC2(CCC2)C(=O)N(C)[C@@H](C2CCCC2)C(=O)N(C)[C@H](C(=O)N(C)C)CC(=O)N1C [PP3520]	91.9 nM	1.2 nM	B (a compound having 3 or more and less than 10 is denoted as B)	B (a compound having 3 or more and less than 10 is denoted as B)

These reach a lower IC50 [1]. Values come first.

IC50 [1]	Kd [2]	SMILES	NRAS /KRAS [3]	HRAS /KRAS (HRAS wild-type protein)
19.2 nM	0.64 nM	CCC[C@H]1C(=O)N[C@@H]([C@@H](C)CC)C(=O)N(C2CC2)CC(=O)N(C)[C@H]2C/C(F)=C\CCN(C2=O)[C@@H](Cc2ccc(C(F)(F)F)cc2)C(=O)N(C)CC(=O)N[C@@H](CCc2cc(F)c(C(F)(F)F)c(F)c2)C(=O)N2C[C@H](OCC)C[C@H]2C(=O)NC2(CCC2)C(=O)N(C)[C@@H](C2CCCC2)C(=O)N(C)[C@H](C(=O)N(C)C)CC(=O)N1C [PP3518]	B (a compound having 3 or more and less than 10 is denoted as B)	B (a compound having 3 or more and less than 10 is denoted as B)
17 nM	0.28 nM	CCO[C@@H]1C[C@H]2C(=O)NC3(CCC3)C(=O)N(C)[C@@H](C3CCCC3)C(=O)N(C)[C@H](C(=O)N(C)C)CC(=O)N(C)[C@@H](CC(C)C)C(=O)N[C@@H]([C@@H](C)CC)C(=O)N(C)CC(=O)N(C)[C@H]3C/C(F)=C\CCN(C3=O)[C@@H](Cc3ccc(C)cc3)C(=O)N(C)CC(=O)N[C@@H](CCc3cc(F)c(C(F)(F)F)c(F)c3)C(=O)N2C1 [PP3515]	B (a compound having 3 or more and less than 10 is denoted as B)	B (a compound having 3 or more and less than 10 is denoted as B)
12.5 nM	0.73 nM	C#CCN1CC(=O)N(C)[C@H]2C/C=C\CCN(C2=O)[C@@H](Cc2ccc(C(F)F)cc2)C(=O)N(C)CC(=O)N[C@@H](CCc2cc(F)c(C(F)(F)F)c(F)c2)C(=O)N2C[C@H](OCC)C[C@H]2C(=O)N(C)C2(CCC2)C(=O)N(C)[C@@H](C(CC)CC)C(=O)N(C)[C@H](C(=O)N(C)C)CC(=O)N(C)[C@@H](COCCC)C(=O)N[C@@H]([C@@H](C)OC)C1=O [PP3506]	A (a compound having 10 or more and less than 20 is denoted as A)	A (a compound having 10 or more and less than 20 is denoted as A)
12.3 nM	0.27 nM	CCO[C@@H]1C[C@H]2C(=O)NC3(CCCC3)C(=O)N(C)[C@@H](C3CCCC3)C(=O)N(C)[C@H](C(=O)N(C)C)CC(=O)N(C)[C@@H](CC(C)C)C(=O)N[C@@H]([C@@H](C)CC)C(=O)N(C)CC(=O)N(C)[C@H]3C/C(F)=C\CCN(C3=O)[C@@H](Cc3ccc(C)cc3)C(=O)N(C)CC(=O)N[C@@H](CCc3cc(F)c(C(F)(F)F)c(F)c3)C(=O)N2C1 [PP3511]	B (a compound having 3 or more and less than 10 is denoted as B)	B (a compound having 3 or more and less than 10 is denoted as B)
12.2 nM	0.17 nM	CCO[C@@H]1C[C@H]2C(=O)NC3(CCC3)C(=O)N(C)[C@@H](C3CCCC3)C(=O)N(C)[C@H](C(=O)N(C)C)CC(=O)N(C)[C@@H](CC(C)C)C(=O)N[C@@H]([C@@H](C)CC)C(=O)N(C)CC(=O)N(C)[C@H]3C/C(F)=C\CCN(C3=O)[C@@H](Cc3ccc(C(F)(F)F)cc3)C(=O)N(C)CC(=O)N[C@@H](CCc3cc(F)c(C(F)(F)F)c(F)c3)C(=O)N2C1 [PP3514]	B (a compound having 3 or more and less than 10 is denoted as B)	B (a compound having 3 or more and less than 10 is denoted as B)
9.4 nM	0.41 nM	CCC[C@H]1C(=O)N[C@@H]([C@@H](C)CC)C(=O)N2CCC[C@H]2C(=O)N(C)[C@H]2C/C(F)=C\CCN(C2=O)[C@@H](Cc2ccc(C(F)(F)F)cc2)C(=O)N(C)CC(=O)N[C@@H](CCc2ccc(C(F)(F)F)c(OC)c2)C(=O)N2C[C@H](OCC)C[C@H]2C(=O)N(C)C2(CCC2)C(=O)N(C)[C@@H](C2CCCC2)C(=O)N(C)[C@H](C(=O)N(C)C)CC(=O)N1C [PP3509]	B (a compound having 3 or more and less than 10 is denoted as B)	B (a compound having 3 or more and less than 10 is denoted as B)
8.8 nM	0.25 nM	CCO[C@@H]1C[C@H]2C(=O)NC3(CCCC3)C(=O)N(C)[C@@H](C3CCCC3)C(=O)N(C)[C@H](C(=O)N(C)C)CC(=O)N(C)[C@@H](CC(C)C)C(=O)N[C@@H]([C@@H](C)CC)C(=O)N(C)CC(=O)N(C)[C@H]3C/C(F)=C\CCN(C3=O)[C@@H](Cc3ccc(C)cc3)C(=O)N(C)CC(=O)N[C@@H](CCc3ccc(C(F)(F)F)c(OC)c3)C(=O)N2C1 [PP3512]	B (a compound having 3 or more and less than 10 is denoted as B)	B (a compound having 3 or more and less than 10 is denoted as B)
8.6 nM	0.14 nM	CCO[C@@H]1C[C@H]2C(=O)NC3(CC(C)(C)C3)C(=O)N(C)[C@@H](C3CCCC3)C(=O)N(C)[C@H](C(=O)N(C)C)CC(=O)N(C)[C@@H](CC(C)C)C(=O)N[C@@H]([C@@H](C)CC)C(=O)N(C)CC(=O)N(C)[C@H]3C/C(F)=C\CCN(C3=O)[C@@H](Cc3ccc(C)cc3)C(=O)N(C)CC(=O)N[C@@H](CCc3cc(F)c(C(F)(F)F)c(F)c3)C(=O)N2C1 [PP3513]	B (a compound having 3 or more and less than 10 is denoted as B)	B (a compound having 3 or more and less than 10 is denoted as B)
